The subject of data set [1] is normal human fibroblasts. Briefly: Cytotoxicity of the fluorescent tracers (paranitrophenylphosphate test). The class given is cell-based. The following applies: for Cell viability (% of untreated control): incubation 24 hours. Here is the method:
Each concentration is tested on 6 different wells.
(§1) The selection of the tracer necessitated the preparation and the purification of liposomes, according to the protocol described in Example 1, these liposomes containing varying concentrations of the various hydrosoluble or liposoluble tracers (Table 1, Annex 1). The controls—a free fluorescent tracer—are made by dissolution at the same concentration of fluorescent tracer in the dilution buffer, so as to quantify its cytotoxicty and its spontaneous penetration in the fibroblasts.
(§2) The fibroblasts are incubated for 24 hours at 37° C. in the presence of the liposomes, and are then rinsed 3 times in pH 7.4 phosphate buffer. First of all, the fluorescence is evaluated dry by spectrofluorimetry with a Cytofluor 4000® (Millipore). Secondly, the intracellular fluorescence is observed for the molecules of interest on an Olympus® reverse microscope (IX70) by using the corresponding excitation filter (objective ×10, ×40 and ×100). Finally, the cytotoxicity of the fluorescent tracers is evaluated in a 96-well plate by incubation for 24 hours as described in Example 1.

In data set [2] the test system is normal human fibroblasts. Briefly: Intracellular penetration of fluorescent tracers, free or in liposomes (spectrofluorimetry). The class given is cell-based. Particulars: for cell-permeating: free probe; for Penetration in liposome: probe encapsulated in liposome; for Penetration (fluorescence after washing): 0.01% tracer in liposomes; for Penetration (fluorescence after washing) / Penetration free probe: 24 hours, gain (45 PFB-F, 50 TRITC).
From the text: as §1
Practically, after extraction from a biopsy originating from abdominal plastic surgery, the fibroblasts are amplified in DF medium, i.e.: DMEM (Dulbecco's Modified Eagle's Medium)/Ham F12 glutamax 50/50 volume/volume, supplemented with 10% of calf serum, with penicillin at a final concentration of 100 UI/millilitre, with gentamicin at a final concentration of 1 microgram/millilitre, with amphotericin B at a final concentration of 1 microgram/millilitre.
Firstly, after centrifugation, the purified liposomes are taken up into DF culture medium, homogenised in a vortex, and are deposited at the rate of 1 ml per well on the fibroblasts cultivated in 24-well plates (Costar MW24). The controls are made under the same conditions. A non-treated control is also made.
as §2
The intracellular penetration of liposomes which contain 5% of soya lecithin, 0.01% of PFB-F or TRITC in the presence or not of 0.5% 25 kDa polyethylenimine (PEI), which are prepared according to the protocol described in Example 1, is analysed after incubation for 24 hours on human fibroblasts cultivated in a 24-well plate, as described in Example 2.

Data set [3] in a line: Encapsulation of fluorescent tracer in soya lecithin liposomes (yield, leak). The class given is physicochemical. The procedure:
0.5 g of soya lecithin, 0.01% of fluorescent tracer which is pre-solubilised according to the recommendations of the provider, are introduced into a dish and is diluted in 10 ml of Trizma buffer. After magnetic agitation for 30 minutes at ambient temperature, the mixture is vigorously homogenised for 10 minutes, in thus obtaining a liposomal solution in which the liposomes have an average size which can vary between 100 and 800 nanometres according to the exact conditions of homogenisation.
The aim of the purification step is to separate the non-encapsulated tracer fraction from the fraction of tracer which is encapsulated in the liposomes. For this, the liposomal solution is centrifuged in a conical tube for 10 minutes at 1,790 g at ambient temperature. The plugs are then recovered and then solubilised in 10 ml of culture medium.
Liposomes are prepared according to the method described in Example 5 with increasing concentrations of 25 kDa PEI from 0 to 100 μM. After centrifugation at 1,790 g for 10 minutes, the supernatants are quantified by spectrofluorimetry. The yields of encapsulation are calculated with respect to the initial concentration.

Data set [4] relates to normal human fibroblasts. Briefly: Cell viability in the screening of functionalising molecules. The following applies: 1% of molecule (25 kDa PEI: 50 μM), 96-well plate. The procedure:
250 μl of liposomal suspension is added onto cultures of normal human fibroblasts extracted from abdominal plasy and cultivated in a 96-well plate. Each concentration is tested on 6 different wells. The cell viability is evaluated by a test with paranitrophenylphosphate which determines the intracellular alkaline phosphatase activity after three rinses with pH 7.4 phosphate buffer. The percentage of living cells is calculated with respect to a control made without the addition of liposome in the culture well (n=6).
55 molecules are firstly tested in triplicate, in comparison with the 50 μM 25 kDa PEI. The intracellular penetration is quantified after 24 hours of incubation on normal human fibroblasts cultivated in 24-well plates as described in Example 2. The cell viability is estimated in a 96-well plate with 200 μl of liposomal suspension.
The intracellular penetration and the cytotoxicity are evaluated as described in Example 2.

As to `NNC(=O)COc1cc(S(=O)(=O)[O-])c2ccc3c(S(=O)(=O)[O-])cc(S(=O)(=O)[O-])c4ccc1c2c43.[Na+].[Na+].[Na+]` [cascade blue hydrazine trisodium salt], the Toxicity entry in the data set with normal human fibroblasts [1] is “No”. In the data set on normal human fibroblasts [2], the cell-permeating entry is reported as “No” and the Penetration in liposome result is “Very low”. The Encapsulated entry in data set [3] is reported as “Yes”.

Turning to `CCCCCCCCCCNCCCCCCCCCC` [Didecylamine 2 C10, Didecylamine], the Viability in the data set with normal human fibroblasts [4] was 28.3%.

Regarding `CCCCCCCC/C=C\CCCCCCCCN` [Oleylamine C18:1, Oleylamine], the Viability in the data set with normal human fibroblasts [4] came to 87.1%.

With `CCCCCCCCCCCCN` [Dodecylamine C12, Dodecylamine], the Viability with normal human fibroblasts [4] stood at 57%.

On to `CCCCCCCCCCN` [Decylamine C10, Decylamine], for which, in the data set on normal human fibroblasts [4], the Viability stood at 68.5%.

`CCCCCCCCCCCCCCN` [Tetradecylamine C14, Tetradecylamine]: the Viability in the data set with normal human fibroblasts [4] is recorded as 54.8%.

In the data set on normal human fibroblasts [4], `CC(O)CN(CCN(CC(C)O)CC(C)O)CC(C)O` (centres unmarked) [Tetrahydroxypropyl ethylenediamine] returned a Viability of 95.3%.

For the compound `Cc1ccc(N(CC(=O)[O-])CC(=O)[O-])c(OCCOc2cc3cc(-c4ncc(C(=O)[O-])o4)oc3cc2N(CC(=O)[O-])CC(=O)[O-])c1.[K+].[K+].[K+].[K+].[K+]` [#F-1200 Fura-2. pentapotassium salt, Fura-2. pentapotassium salt], the Toxicity result with normal human fibroblasts [1] is “No”. In addition, in the data set with normal human fibroblasts [2], the cell-permeating entry was “No” and the Penetration in liposome result is recorded as “No”. For the same compound, the Encapsulated result in data set [3] is “No”.

Take “sulfo fluorescein diacetate [#S-1129 sulfo fluorescein diacetate]”: the Toxicity result in the data set with normal human fibroblasts [1] is listed as “No”. In addition, in the data set on normal human fibroblasts [2], the cell-permeating result is listed as “no” and the Penetration in liposome entry was “Very low”.

In the data set on normal human fibroblasts [4], `CCCCNCCCC` [Dibutylamine 2 C4, Dibutylamine] gave a Viability of 75.7%.

`CCCN` [Propylamine C3, Propylamine] had a Viability in the data set with normal human fibroblasts [4] of 103.3%.

For the compound `CCCCCCCCCCCCCCCCCCN` [Octadecylamine C18, Octadecylamine], the Viability in the data set with normal human fibroblasts [4] is 61.2%.

`CCCCCCCCCCCCCCCN` [Pentadecylamine C15, Pentadecylamine] showed a Viability in the data set on normal human fibroblasts [4] of 73%.

In turn, `CCCCCCCCCCCN` [Undecylamine C11, Undecylamine] came in with a Viability in the data set with normal human fibroblasts [4] of 84%.

For the compound `O=C1OC2(c3ccc(O)cc3Oc3cc(O)ccc32)c2ccc(NC(=O)c3c(F)c(F)c(F)c(F)c3F)cc21` [PFB-F, 5-pentafluorobenzoylaminofluorescein], the “Cell viability (% of untreated control)” value in the data set on normal human fibroblasts [1] worked out at 110.7%. Further, the “Penetration (fluorescence after washing)” value in the data set on normal human fibroblasts [2] is on record as 65 (gain 45). Also, the cell-permeating result with normal human fibroblasts [2] is “No”. In the data set on normal human fibroblasts [2] (free tracer), the Penetration free probe was 8 (gain 45). In the data set on normal human fibroblasts [2], the Penetration in liposome result is on record as “Yes”. In addition, in data set [3], the Encapsulated entry was “Yes”. For the same compound, in data set [3], the leak result was “No”. Further, the “Yield (%) of encapsulation of PFB-F” value in data set [3] (PEI 0 μM) was determined as 89.0%; in data set [3] (PEI 1 μM) it was 92.3%; in data set [3] (PEI 10 μM), 91.0%; in data set [3] (PEI 50 μM), 87.5%; in data set [3] (PEI 100 μM) it was 86.3%. In data set [3] (liposomes based on soya lecithin), the “yield of incorporation in the liposomes” value is on record as “about 80%”.

In turn, `CCCCCCCCNCCCCCCCC` [Dioctylamine 2 C8, Dioctylamine] came in with a Viability in the data set on normal human fibroblasts [4] of 34.7%.

As to “dextran texas red [#D-3329 dextran texas red]”, in the data set with normal human fibroblasts [2], the cell-permeating entry is listed as “No” and the Penetration in liposome result is given as “No”.

As to `CCCCCCN` [Hexylamine C6, Hexylamine], the Viability in the data set on normal human fibroblasts [4] was 82.1%.

Consider `O=S(=O)([O-])c1cc(O)c2ccc3c(S(=O)(=O)[O-])cc(S(=O)(=O)[O-])c4ccc1c2c34.[Na+].[Na+].[Na+]` [hydroxypyrene trisulfonic acid, trisodium salt], for which, in the data set on normal human fibroblasts [2], the cell-permeating result was “No” and the Penetration in liposome result is “No”. In addition, in data set [3], the Encapsulated result is recorded as “No”.

For the compound “tetramethylrhodamine isothiocyanate [TRITC]”, in the data set on normal human fibroblasts [1], the Toxicity result is “No”, the “cytotoxicity (in words)” value is “slightly cyctotoxic” and the “Cell viability (% of untreated control)” value was found to be 74.8%. Moreover, in the data set on normal human fibroblasts [2], the “Penetration (fluorescence after washing)” value is reported as 1,119 (gain 50) and the Penetration in liposome entry is listed as “Yes”. Also, in the data set with normal human fibroblasts [2] (free tracer), the “penetration when added free in the culture medium (in words)” value is “penetrates slightly” and the Penetration free probe is 295 (gain 50). Also, the Encapsulated entry in data set [3] is “Yes”.

As to `CCCCCCCCCCCCCN` [Tridecylamine C13, Tridecylamine], in the data set on normal human fibroblasts [4], the Viability is 62.6%.

In the case of “Lysosensor yellow/blue DND 160 [#L7545L Lysosensor yellow/blue DND 160]”, the Toxicity result in the data set with normal human fibroblasts [1] is recorded as “No”. In addition, in the data set with normal human fibroblasts [2], the cell-permeating entry is given as “Yes” and the Penetration in liposome entry was “No”. Also, in data set [3], the Encapsulated result was “Yes” and the leak entry is “Yes”.

As for “carboxy dichlorofluorescein [#C-369 carboxy dichlorofluorescein]”, in the data set on normal human fibroblasts [2], the cell-permeating entry is listed as “Yes”. For the same compound, in data set [3], the Encapsulated entry is “Yes” and the leak entry is “Yes”.

On to `CCCCCCCN` [Heptylamine C7, Heptylamine], for which the Viability in the data set with normal human fibroblasts [4] is 39.4%.

In turn, `CCCCCCCCCCCCCCCCCC[N+](C)(C)Cc1ccccc1.[Cl-]` [Stearalkonium chloride, benzyldimethyl (octadecyl) ammonium chloride] had a Viability in the data set with normal human fibroblasts [4] of 37.4%.

As to “carboxyethyl carboxyffluorescein [#B-1151 carboxyethyl carboxyffluorescein]”, in data set [3], the Encapsulated result is reported as “No”.

The record behind these values is patent US9655822B2, “Hydrated lamellar phases or liposomes which contain a fatty monoamine or a cationic polymer which promotes intracellular penetration, and a cosmetic or pharmaceutical composition containing same, as well as a method of screening such a substance” (BASF Beauty Care Solutions France S.A.S., priority 2004, dated 2017).
